In ChEMBL document CHEMBL1141566, “Synthesis and antitumor evaluation of bis aza-anthracene-9,10-diones and bis aza-anthrapyrazole-6-ones” (2008):

What was measured:
Type in all cases: functional
HT-29 [1] = assay: Cytotoxicity against human HT29 cells after 72 hrs; conditions: HT-29, 72 h
HT-29 [2] = assay: Effect on apoptosis in human HT29 PI-/AnnV- cells after 6 hrs by biparametric flow cytometric analysis; conditions: HT-29, 6 h, read-out: LC50 (the source's name)
HT-29 [3] = assay: Effect on apoptosis in human HT29 PI+/AnnV- cells after 6 hrs by biparametric flow cytometric analysis; conditions: HT-29, 6 h, read-out: LC50 (the source's name)
HT-29 [4] = assay: Effect on apoptosis in human HT29 PI-/AnnV+ cells after 6 hrs by biparametric flow cytometric analysis; conditions: HT-29, 6 h, read-out: LC50 (the source's name)
HT-29 [5] = assay: Effect on apoptosis in human HT29 PI+/AnnV+ cells after 6 hrs by biparametric flow cytometric analysis; conditions: HT-29, 6 h, read-out: LC50 (the source's name)
HT-29 [6] = assay: Effect on apoptosis in human HT29 PI-/AnnV- cells after 12 hrs by biparametric flow cytometric analysis; conditions: HT-29, 12 h, read-out: LC50 (the source's name)
HT-29 [7] = assay: Effect on apoptosis in human HT29 PI+/AnnV- cells after 12 hrs by biparametric flow cytometric analysis; conditions: HT-29, 12 h, read-out: LC50 (the source's name)
HT-29 [8] = assay: Effect on apoptosis in human HT29 PI-/AnnV+ cells after 12 hrs by biparametric flow cytometric analysis; conditions: HT-29, 12 h, read-out: LC50 (the source's name)
HT-29 [9] = assay: Effect on apoptosis in human HT29 PI+/AnnV+ cells after 12 hrs by biparametric flow cytometric analysis; conditions: HT-29, 12 h, read-out: LC50 (the source's name)
HT-29 [10] = assay: Effect on apoptosis in human HT29 PI-/AnnV- cells after 24 hrs by biparametric flow cytometric analysis; conditions: HT-29, 24 h, read-out: LC50 (the source's name)
HT-29 [11] = assay: Effect on apoptosis in human HT29 PI+/AnnV- cells after 24 hrs by biparametric flow cytometric analysis; conditions: HT-29, 24 h, read-out: LC50 (the source's name)
HT-29 [12] = assay: Effect on apoptosis in human HT29 PI-/AnnV+ cells after 24 hrs by biparametric flow cytometric analysis; conditions: HT-29, 24 h, read-out: LC50 (the source's name)
HT-29 [13] = assay: Effect on proapoptotic BAK1 gene expression in human HT29 cells after 6 hrs
HT-29 [14] = assay: Effect on proapoptotic BAX gene expression in human HT29 cells after 6 hrs
HT-29 [15] = assay: Effect on apoptotic BCL2L1 gene expression in human HT29 cells after 6 hrs
HT-29 [16] = assay: Effect on proapoptotic BCL2 gene expression in human HT29 cells after 6 hrs
HT-29 [17] = assay: Effect on apoptotic BCL2L10 gene expression in human HT29 cells after 6 hrs
HT-29 [18] = assay: Effect on proapoptotic BCL2L11 gene expression in human HT29 cells after 6 hrs
HT-29 [19] = assay: Effect on proapoptotic BNIP1 gene expression in human HT29 cells after 6 hrs
HT-29 [20] = assay: Effect on proapoptotic BNIP3L gene expression in human HT29 cells after 6 hrs
HT-29 [21] = assay: Effect on apoptotic MCL1 gene expression in human HT29 cells after 6 hrs
HT-29 [22] = assay: Effect on proapoptotic CASP7 gene expression in human HT29 cells after 6 hrs
HT-29 [23] = assay: Effect on proapoptotic CASP9 gene expression in human HT29 cells after 6 hrs
HT-29 [24] = assay: Effect on apoptotic CFLAR gene expression in human HT29 cells after 6 hrs
HT-29 [25] = assay: Effect on proapoptotic NOD1 gene expression in human HT29 cells after 6 hrs
HT-29 [26] = assay: Effect on proapoptotic CARD6 gene expression in human HT29 cells after 6 hrs
HT-29 [27] = assay: Effect on proapoptotic CARD8 gene expression in human HT29 cells after 6 hrs
HT-29 [28] = assay: Effect on proapoptotic CIDEB gene expression in human HT29 cells after 6 hrs
HT-29 [29] = assay: Effect on apoptotic NOL3 gene expression in human HT29 cells after 6 hrs
HT-29 [30] = assay: Effect on apoptotic GADD45A gene expression in human HT29 cells after 6 hrs
HT-29 [31] = assay: Effect on proapoptotic BFAR gene expression in human HT29 cells after 6 hrs
HT-29 [32] = assay: Effect on apoptotic BIRC8 gene expression in human HT29 cells after 6 hrs
HT-29 [33] = assay: Effect on proapoptotic BAK1 gene expression in human HT29 cells after 12 hrs
HT-29 [34] = assay: Effect on proapoptotic BAX gene expression in human HT29 cells after 12 hrs
HT-29 [35] = assay: Effect on proapoptotic BCLAF1 gene expression in human HT29 cells after 12 hrs
HT-29 [36] = assay: Effect on proapoptotic BNIP3L gene expression in human HT29 cells after 12 hrs
HT-29 [37] = assay: Effect on proapoptotic CIDEB gene expression in human HT29 cells after 12 hrs
HT-29 [38] = assay: Effect on apoptotic NOL3 gene expression in human HT29 cells after 12 hrs
HT-29 [39] = assay: Effect on apoptotic BRAF gene expression in human HT29 cells after 12 hrs
HT-29 [40] = assay: Effect on proapoptotic BFAR gene expression in human HT29 cells after 12 hrs
HT-29 [41] = assay: Effect on proapoptotic LTBR gene expression in human HT29 cells after 6 hrs
HT-29 [42] = assay: Effect on proapoptotic LTBR gene expression in human HT29 cells after 12 hrs
HT-29 [43] = assay: Effect on proapoptotic TNFRSF10A gene expression in human HT29 cells after 6 hrs
HT-29 [44] = assay: Effect on apoptotic MCL1 gene expression in human HT29 cells after 12 hrs
HT-29 [45] = assay: Effect on apoptotic CFLAR gene expression in human HT29 cells after 12 hrs
HT-29 [46] = assay: Effect on apoptotic BIRC3 gene expression in human HT29 cells after 12 hrs
HT-29 [47] = assay: Effect on apoptotic BIRC8 gene expression in human HT29 cells after 12 hrs
HT-29 [48] = assay: Effect on proapoptotic CARD6 gene expression in human HT29 cells after 12 hrs
HT-29 [49] = assay: Effect on apoptosis in human HT29 PI+/AnnV+ cells after 24 hrs by biparametric flow cytometric analysis; conditions: HT-29, 24 h, read-out: LC50 (the source's name)
HT-29 [50] = assay: Effect on proapoptotic TNFRSF10A gene expression in human HT29 cells after 12 hrs
HT-29 [51] = assay: Effect on proapoptotic TNFRSF10B gene expression in human HT29 cells after 12 hrs
HT-29 [52] = assay: Effect on apoptotic BAG1 gene expression in human HT29 cells after 6 hrs
HT-29 [53] = assay: Effect on apoptotic BAG4 gene expression in human HT29 cells after 6 hrs
HT-29 [54] = assay: Effect on apoptotic BAG4 gene expression in human HT29 cells after 12 hrs
HT-29 [55] = assay: Effect on apoptotic BCL10 gene expression in human HT29 cells after 12 hrs
HT-29 [56] = assay: Effect on apoptotic AKT1 gene expression in human HT29 cells after 12 hrs
HT-29 [57] = assay: Effect on apoptotic IGF1R gene expression in human HT29 cells after 6 hrs
HT-29 [58] = assay: Effect on apoptotic IGF1R gene expression in human HT29 cells after 12 hrs
HT-29 [59] = assay: Effect on apoptotic BIRC6 gene expression in human HT29 cells after 6 hrs

CN(C)CCn1nc2c3c(c(NCCCN(C)CCCNc4ccc5c6c(nn5CCN(C)C)-c5cnccc5C(=O)c46)ccc31)C(=O)c1ccncc1-2
GI50 (HT-29 [1]): 0.00036 µM
LC50 (concentration killing 50% of cells) (HT-29 [1]): 9.8 µM
TGI (HT-29 [1]): 1.3 µM
CC50 (HT-29 [2]): 72.5 µM
CC50 (HT-29 [3]): 3.4 µM
CC50 (HT-29 [4]): 22.3 µM
CC50 (HT-29 [5]): 1.8 µM
CC50 (HT-29 [6]): 60 µM
CC50 (HT-29 [7]): 4.2 µM
CC50 (HT-29 [8]): 32.4 µM
CC50 (HT-29 [9]): 3.4 µM
CC50 (HT-29 [10]): 8.3 µM
CC50 (HT-29 [11]): 7.2 µM
CC50 (HT-29 [12]): 62.3 µM
Fold change (HT-29 [13]): 4.5
Fold change (HT-29 [14]): 4.1
Fold change (HT-29 [15]): 1.2
Fold change (HT-29 [16]): -2.8
Fold change (HT-29 [17]): 2.2
Fold change (HT-29 [18]): 7.7
Fold change (HT-29 [19]): 3
Fold change (HT-29 [20]): 7.4
Fold change (HT-29 [21]): -5
Fold change (HT-29 [22]): 5.6
Fold change (HT-29 [23]): 2.2
Fold change (HT-29 [24]): -2.2
Fold change (HT-29 [25]): 4.2
Fold change (HT-29 [26]): -2.7
Fold change (HT-29 [27]): 4
Fold change (HT-29 [28]): 8.3
Fold change (HT-29 [29]): -2.5
Fold change (HT-29 [30]): 8.8
Fold change (HT-29 [31]): -7
Fold change (HT-29 [32]): -5.6
Fold change (HT-29 [33]): 4.1
Fold change (HT-29 [34]): 1.3
Fold change (HT-29 [35]): 136
Fold change (HT-29 [36]): 3.6
Fold change (HT-29 [37]): 2.4
Fold change (HT-29 [38]): -3.8
Fold change (HT-29 [39]): -9.1
Fold change (HT-29 [40]): -2.5
Fold change (HT-29 [41]): -5.3
Fold change (HT-29 [42]): -4.3
Fold change (HT-29 [43]): -2.5
Fold change (HT-29 [44]): -2.7
Fold change (HT-29 [45]): -3.3
Fold change (HT-29 [46]): -6.3
Fold change (HT-29 [47]): -33.3
Fold change (HT-29 [48]): -6.7
CC50 (HT-29 [49]): 22.2 µM
Fold change (HT-29 [50]): -5.9
Fold change (HT-29 [51]): -4.3
Fold change (HT-29 [52]): -2.5
Fold change (HT-29 [53]): -7
Fold change (HT-29 [54]): -3.3
Fold change (HT-29 [55]): -2.2
Fold change (HT-29 [56]): -6.3
Fold change (HT-29 [57]): -38.5
Fold change (HT-29 [58]): -4
Fold change (HT-29 [59]): -2.6
